“Also recorded” adds a separate entry of the source. Where a name gives a salt, the structure may show the parent alone.
How the values were obtained:
[1] = system: glucocorticoid response element (GRE) / glucocorticoid receptor; experiment: GRE reporter assay; assay type: cell-based
Method: FIG. 11B. Effects of JN series compounds in reporter assays for glucocorticoid response element. Experiments were performed in triplicate and results are means+/−s.d.

[2] = system: AR regulated genes (TMPRSS, NDRG), AR^FL, AR-V7; experiment: Expression of AR-regulated genes (Western blot); assay type: cell-based
Method: 22Rv1 and CWR22 cells were exposed to JN018 at the indicated concentrations (in μM) for 24 hours before protein extraction for Western blotting.
JN018 was further evaluated to identify a mechanism for its activity in prostate cancer cell lines. It was discovered that JN018 inhibits the expression of AR regulated genes. […] In principle, decreased AR expression can be attributed to several different effects, such as gene transcription, mRNA stability, translation, or protein stability.

[3] = system: AR positive PCa cells (LNCaP, LNCaP-AR, CWR22, 22Rv1, LAPC4); experiment: MTT / CellTiter GLO cell viability, AR positive prostate cancer cells
Method: (§2) The results are means of quadruplicate expts±s.d. Top panel: CellTiter GLO luminescent bioassay (arbitrary units on vertical axis). Bottom panel: classical MTT assay ([blue/yellow]=[viable/non-viable]).
(§3) Experiments were performed in quadruplicate; results are means+/−s.d.
Results were normalized to that of vehicle control. Experiments were performed in quadruplicate; results are means+/−s.d.
Next, the effects of the compounds on growth of prostate cancer cell lines in vitro were evaluated.

[4] = system: prostate cancer cell lines; experiment: Growth inhibition of prostate cancer cell lines (IC50); assay type: cell-based
[5] = system: AR-null PCa cells (DU145, PC3); experiment: MTT / CellTiter GLO cell viability, AR-null prostate cancer cells
Method: as §2, §3
AR null PC3 cells were exposed to the indicated compounds for 6 days; cell viability was measured by MTT assay. Results were normalized to that of vehicle control. Experiments were performed in quadruplicate; results are means+/−s.d.
For each compound and concentration in the figure, the bars represent relative cell viability of 22Rv1, LAPC4, and DU145, from left to right.
For each compound and concentration in the figure, the bars represent relative cell viability of CWR22 and PC3, from left to right.

[6] = system: androgen response element (ARE); experiment: ARE reporter assay (tandem copies of the androgen response element); assay type: cell-based
Method: FIG. 11A. Effects of JN series compounds in reporter assays for androgen response element. Experiments were performed in triplicate and results are means+/−s.d.

[7] = target: T1, AR (Homo sapiens, UniProt P10275); experiment: AR binding
T1 sequence (P10275 1-920): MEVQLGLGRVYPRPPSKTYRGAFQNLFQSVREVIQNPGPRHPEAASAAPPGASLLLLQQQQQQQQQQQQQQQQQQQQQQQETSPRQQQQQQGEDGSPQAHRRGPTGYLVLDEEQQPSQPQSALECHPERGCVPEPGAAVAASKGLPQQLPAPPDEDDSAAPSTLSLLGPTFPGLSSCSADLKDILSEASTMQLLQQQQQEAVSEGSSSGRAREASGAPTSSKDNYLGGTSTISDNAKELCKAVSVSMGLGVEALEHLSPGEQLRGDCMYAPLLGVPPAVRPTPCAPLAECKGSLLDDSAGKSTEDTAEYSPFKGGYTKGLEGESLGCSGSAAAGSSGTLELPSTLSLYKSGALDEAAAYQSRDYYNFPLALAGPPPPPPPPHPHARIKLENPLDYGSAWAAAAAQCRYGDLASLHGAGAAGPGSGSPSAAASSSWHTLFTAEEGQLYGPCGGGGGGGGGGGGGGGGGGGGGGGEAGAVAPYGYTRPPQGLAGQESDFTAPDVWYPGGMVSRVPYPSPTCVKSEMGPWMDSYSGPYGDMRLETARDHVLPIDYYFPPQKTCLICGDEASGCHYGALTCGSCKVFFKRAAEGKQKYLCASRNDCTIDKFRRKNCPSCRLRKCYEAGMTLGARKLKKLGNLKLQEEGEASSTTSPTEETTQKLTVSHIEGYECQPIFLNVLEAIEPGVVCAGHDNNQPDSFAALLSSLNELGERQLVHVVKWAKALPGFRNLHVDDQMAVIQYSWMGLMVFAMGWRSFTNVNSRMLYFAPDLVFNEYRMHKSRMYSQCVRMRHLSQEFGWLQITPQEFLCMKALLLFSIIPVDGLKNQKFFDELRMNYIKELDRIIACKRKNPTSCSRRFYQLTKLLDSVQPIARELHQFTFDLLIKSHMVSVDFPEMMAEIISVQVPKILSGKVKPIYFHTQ
Source text: In particular, JN018 has the following properties: (1) AR TAD is its molecular target. […] (3) JN018 induces rapid degradation of the full-length AR (ARFL) and constitutively active AR splice variants (ARSV) that lack a functional LBD. […] (5) JN018 causes growth inhibition of castration resistant prostate cancer xenografts. (6) JN018 inhibits AR-driven gene expression.

[8] = system: c-Jun TAD; experiment: JUN-TAD fused to GAL4 DNA-binding domain reporter assay; assay type: cell-based; conditions: Table 3 grade HIGH/MED/LOW, grades not defined
Source text: (§1) The inhibitory activity of JN018 was further evaluated in experiments in which the AR transactivation domain (TAD) or the c-Jun or CREB TAD was fused to the heterologous GAL4 DNA-binding domain and thereby drive reporter gene expression governed by the GAL4 response element (FIG. 1).

[9] = target: AR (Homo sapiens, UniProt P10275); experiment: AR inhibition (reporter activity of full-length AR and AR splice variants)
[10] = system: AP1 mediated reporter activity; experiment: AP1 reporter assay; assay type: cell-based
[11] = target: T2, AR transactivation domain (TAD) (Homo sapiens, UniProt P10275); experiment: AR-TAD fused to GAL4 DNA-binding domain reporter assay; assay type: cell-based
T2 construct: expressed in transfected cells
T2 sequence (P10275 1-559 limits assumed): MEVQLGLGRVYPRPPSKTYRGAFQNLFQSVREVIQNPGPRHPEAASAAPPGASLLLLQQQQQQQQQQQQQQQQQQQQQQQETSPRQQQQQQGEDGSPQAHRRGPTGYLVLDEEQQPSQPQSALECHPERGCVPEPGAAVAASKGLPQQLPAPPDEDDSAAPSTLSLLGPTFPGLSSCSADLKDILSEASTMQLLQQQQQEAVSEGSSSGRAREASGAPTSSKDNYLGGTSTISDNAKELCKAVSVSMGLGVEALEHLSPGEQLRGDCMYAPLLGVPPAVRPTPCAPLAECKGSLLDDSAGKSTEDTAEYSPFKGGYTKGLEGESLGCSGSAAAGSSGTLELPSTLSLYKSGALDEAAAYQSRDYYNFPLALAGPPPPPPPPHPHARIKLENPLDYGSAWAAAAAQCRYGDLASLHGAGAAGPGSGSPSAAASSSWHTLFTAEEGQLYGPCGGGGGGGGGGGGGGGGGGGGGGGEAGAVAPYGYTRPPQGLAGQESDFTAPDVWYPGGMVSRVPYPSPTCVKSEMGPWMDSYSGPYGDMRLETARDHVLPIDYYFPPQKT
Source text: as §1

[12] = Table 3 grade HIGH/MED/LOW, grades not defined

SMILES: C=C(CN(C)Cc1ccccc1)C(=O)/C(=C/c1ccc(Cl)cc1)c1ccccc1 [JN018, (E)-4-((Benzyl(methyl)amino)methyl)-1-(4-chlorophenyl)-2-phenylpenta-1,4-dien-3-one hydrochloride]
- GRE [1, 12]: LOW
- GR / GRE mediated reporter (transcriptional) activity ([1]; result in words, hydrochloride): does not inhibit; also recorded: does not affect
- full length AR and AR-V7 expression [2]: reduces both full length AR and AR-V7 expression
- expression of TMPRSS and NDRG ([2]; 22Rv1 and CWR22 cells, 24 hours): reduces expression of TMPRSS and NDRG in a dose-dependent fashion
- MTT AR-Pos [3, 12]: HIGH
- growth of AR expressing prostate cancer cells ([3]; result in words): inhibits the growth
- IC50 [4]: 1500 nM
- MTT AR-Neg [5, 12]: LOW
- growth of AR null prostate cancer cells ([5]; result in words): had no effect
- ARE [6, 12]: HIGH
- reporter activity driven by the ARE ([6]; result in words): inhibits reporter activity
- binding to the AR ([7]; result in words): direct, selective, high affinity covalent binding
- Kd ([7]; unit inferred): 7.3 nM
- JUN-TAD [8]: LOW
- reporter activity of endogenously and ectopically expressed full-length AR and AR-V7 ([9]; LNCaP, LNCaP-AR, 22Rv1, PC3 transfected with ARΔ567): inhibits the reporter activity
- IC50 ([9]; read-out: IC50 for AR inhibition): 110 nM
- AP1 [10, 12]: LOW
- AP1 mediated reporter activity ([10]; result in words): does not affect
- AR-TAD [11, 12]: HIGH
- inhibition of the AR-GAL4-DBD fusion protein ([11]; result in words, versus c-Jun or CREB TAD fusions): selectively inhibits

Source: patent US11261152B2, “Inhibitors of the N-terminal domain of the androgen receptor” (The Regents of the University of California, priority 2017, dated 2022)
